Measured values from patent publication US20050124626A1, “Novel compounds” (priority 2002, published 2005).
Structures can show the parent of a compound that is named as a salt.

molecular target: T1, human cloned 5-HT6 receptors (Homo sapiens, UniProt P50406); assay: 5-HT6 receptor affinity following the procedures outlined in WO98/27081; format: binding; details: read-out: pKi values at human cloned 5-HT6 receptors (converted)
T1 construct: expressed in transfected cells
Source text: Compounds can be tested following the procedures outlined in WO98/27081.

T1 sequence (P50406 whole entry): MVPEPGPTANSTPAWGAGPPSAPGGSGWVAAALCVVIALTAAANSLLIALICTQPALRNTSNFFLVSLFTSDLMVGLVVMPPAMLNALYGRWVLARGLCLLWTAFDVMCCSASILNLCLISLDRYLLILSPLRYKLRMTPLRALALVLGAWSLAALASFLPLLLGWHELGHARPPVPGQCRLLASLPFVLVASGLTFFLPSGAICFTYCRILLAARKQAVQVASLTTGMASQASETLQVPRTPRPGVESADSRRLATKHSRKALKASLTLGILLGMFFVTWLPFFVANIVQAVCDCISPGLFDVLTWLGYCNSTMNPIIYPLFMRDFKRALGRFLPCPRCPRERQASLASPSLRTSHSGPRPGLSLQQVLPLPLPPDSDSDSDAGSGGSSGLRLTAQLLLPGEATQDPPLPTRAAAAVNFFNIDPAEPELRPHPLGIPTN

`O=S(=O)(c1ccccc1)c1ccnc2c(N3CCNCC3)cccc12` [Example E10, 4-Phenylsulfonyl-8-piperazin-1-yl quinoline] and `Cc1cc(S(=O)(=O)c2ccccc2)c2cccc(N3CCNCC3)c2n1` [Example E12, 2-Methyl-4-phenylsulfonyl-8-piperazin-1-yl-quinoline] cannot be ordered by Ki: < 10 nM for the first, < 10 nM for the second.

`Cc1cc(S(=O)(=O)c2ccccc2F)c2cccc(N3CCNCC3)c2n1` [Example E14] and `Cc1cc(S(=O)(=O)c2ccccc2)c2cccc(N3CCNCC3)c2n1` [Example E13, 2-Methyl-4-phenylsulfonyl-8-piperazin-1-ylquinoline hydrochloride] cannot be ordered by Ki: < 10 nM for the first, < 10 nM for the second.

`O=S(=O)(c1cccc(F)c1)c1c[nH]c2c(N3CCNCC3)nccc12` [Example E8, 3-(3-Fluorophenyl)sulfonyl-7-piperazin-1-yl-1H-pyrrolo[2,3-c]pyridine hydrochloride] and `O=S(=O)(c1ccccc1)c1c[nH]c2c(N3CCNCC3)nccc12` [Example E6, 7-piperazin-1-yl-3-phenylsulfonyl-1H-pyrrolo[2,3-c]pyridine hydrochloride] cannot be ordered by Ki: < 31.6 nM for the first, < 31.6 nM for the second.

`Cc1cc(S(=O)(=O)c2cccc(Cl)c2)c2cccc(N3CCNCC3)c2n1` [Example E16] and `Cc1cc(S(=O)(=O)c2cccc(F)c2)c2cccc(N3CCNCC3)c2n1` [Example E15] cannot be ordered by Ki: < 10 nM for the first, < 10 nM for the second.

`O=S(=O)(c1ccccc1F)c1c[nH]c2c(N3CCNCC3)nccc12` [Example E7, 3-(2-Fluorophenyl)sulfonyl-7-piperazin-1-yl-1H-pyrrolo[2,3-c]pyridine hydrochloride] and `O=S(=O)(c1ccccc1)c1ccnc2c(N3CCNCC3)cccc12` [Example E11, 4-Phenylsulfonyl-8-piperazin-1-yl-quinoline hydrochloride] cannot be ordered by Ki: < 31.6 nM for the first, < 10 nM for the second.

In the case of `Cc1cc(N2CCNCC2)c2ccc(S(=O)(=O)c3ccccc3)cc2n1` [Example E9, 2-Methyl-4-piperazin-1-yl-7-phenylsulfonylquinoline hydrochloride], the Ki is reported as < 10 nM.
